{"source": "patent US20160340656A1", "about": "“PEPTIDES DERIVED FROM GSE 24.2 FOR TREATING DISEASES CAUSED BY OXIDATIVE STRESS AND DAMAGE TO DNA” (CONSEJO SUPERIOR DE INVESTIGACIONES CIENTÍFICAS (CSIC), priority 2013, published 2016)", "molecules": {"B1": {"name": "GFINLDKPSNPSSHEVVAWIRRILRVEKTGHSGTLDPKVTGCLIVCIERATRLVKKKEKKKSK (peptide, listed as Homo sapiens)", "chain": "GFINLDKPSNPSSHEVVAWIRRILRVEKTGHSGTLDPKVTGCLIVCIERATRLVKKKEKKKSK", "modifications": "GSE24.2NLS2-3", "notes": "GSE24.2 with NLS2 in the 3′ position"}}, "key": {"HeLa cells": {"tested_on": "HeLa cells", "assay": "Internalisation of fluorescein-labelled peptides, confocal fluorescence microscopy", "type": "cell-based", "protocol": "(§1) FIG. 21. Transfection of peptides GSE4 and GSE4NLS1 in HeLa cells. Peptides GSE4 and GSE4NLS1 (SEQ ID No. 7) labelled with fluorescein and obtained by chemical synthesis were transfected into HeLa cells using the Proteojuice reagent and viewed in a confocal fluorescence microscope at 9, 24 and 48 hours after transfection.\nas §1, with “22. Internalisation” for “21. Transfection”, “added to the culture medium of” for “transfected into”, “cells” for “cells using the Proteojuice reagent”\nGiven the ability of sequence NLS1 to contribute to the activity of GSE24.2, a synthetic peptide into which this sequence was placed in the 3′ region of peptide GSE4 was constructed as this was the peptide for which the greatest telomerase activation was obtained. The peptides obtained by chemical synthesis were labelled with fluorescein to facilitate their visualisation in a fluorescence microscope. Two experiments were performed in parallel, in one the peptides were transfected using Proteojuice reagent and in the other they were added directly to the culture medium. […] An important difference observed was that when the peptides were added directly to the culture medium, the peptide entered into a higher number of cells than when Proteojuice was used. The reagent provided greater effectiveness for internalisation but into a small number of cells."}, "[1]": {"tested_on": "promoter of c-myc in 293T cells", "assay": "c-myc promoter luciferase reporter activity", "type": "cell-based", "details": "24 hours, relative to GSE24.2", "protocol": "FIG. 20. Activity of constructions GSE24.2NLS1-3 and GSE24.2NLS2-3 on the c-myc promoter. The expression vectors for the constructions GSE24.2, GSE24.2N LS1-3 and GSE24.2NLS2-3 were transfected (using lipofectamine) into 293T cells together with the reporter gene of the promoter of c-myc, pXP1, and 24 hours later the luciferase activity was measured using a commercial kit. The values are expressed as relative activity, considering 1 as the value of luciferase with the empty expression vector pCDNA3myc.\nWith the aim of evaluating biological activity of the constructions containing the signals NLS1-3 and N LS2-3, they were transfected into 293T cells together with the reporter gene of the promoter of c-myc and the luciferase activity activated by both constructions GSE24.2NLS1-3 and GSE24.2NLS2-3 was evaluated in relation to GSE24.2."}, "[2]": {"tested_on": "AT2078 cells of patients with ataxia telangiectasia", "assay": "Damage to DNA in AT2078 cells: histone H2AX Ser139 foci after expression of GSE4 or SGSE4", "type": "cell-based, human", "details": "200 cells", "protocol": "FIG. 14. Determination of damage to DNA in AT cells after transfecting peptides GSE4 and SGSE4: AT2078 AT cells were infected with a lentiviral vector expressing GSE4, SGSE4 or a GFP empty vector and 24 hours later were fixed for processing and hybridised with an antibody against phosphorylated histone H2AX (Ser139). Control C-1787 cells were used as the negative control. Next they were hybridised with a fluorescein-labelled antibody and were stained with DAPI to locate the nuclei.\nAs the peptide denominated GSE4 was the smallest sized of the peptides with ability to inhibit damage to DNA, we studied if another peptide with a similar sequence localised in the sequence of peptide GSE24.2 had the same activity or if that activity was specific to GSE4. Peptide SGSE4 (SEQ ID No. 15) is similar to GSE4 in sequence (amino acids LDPK/LDKP that constitute consensus sequences for pseudouridine synthases) and size and is found in the TRUBII domain of dyskerin. Cell lines AT2078 of patients with ataxia telangiectasia were used for this test. Cell line C-1787 was used as the control cell line. The cells were infected with the bicistronic lentiviral vector pCMV-GFP-GSE4, SGSE4 or GFP. After 48 hours of infection the cells were fixed with formaldehyde and then permeabilized by treating them with Triton X-100. The damage to DNA was estimated by studying the signal after hybridisation of the cells with an antibody against histone H2AX Ser139 and subsequent hybridisation with an antibody bound to fluorescein. The number of foci with stain for histone H2AX per nucleus was determined by confocal microscopy in a total of 200 cells and the data represented as a percentage of cells with a specific number of foci."}}}
{"molecule": "GFINLDKPSNPKRKR (GSE4NLS1-3; listed as Homo sapiens)", "values": [{"measurement": "entry into cells", "setting": "HeLa cells; peptide simply added to the culture medium", "result": "entered the cells"}, {"measurement": "entry into cells", "setting": "HeLa cells; transfected using Proteojuice reagent", "result": "entered the cells"}]}
{"molecule": "GFINLDKPSNPSSHEVVAWIRRILRVEKTGHSGTLDPKVTGCLIVCIERATRLVKKRKR (GSE24.2NLS1-3; listed as Homo sapiens) [GSE24.2 with NLS1 in the 3′ position]", "values": [{"measurement": "activation of expression of the promoter of c-myc (luciferase)", "setting": "[1]", "result": "more effectively than GSE24.2"}]}
{"molecule": "HSGTLDPKVTG (listed as Homo sapiens) [SGSE4, reference compound]", "values": [{"measurement": "AT cells in which overall damage to DNA is corrected", "setting": "[2]", "result": "not able to correct the damage to DNA"}]}
{"molecule": "B1", "values": [{"measurement": "activation of expression of the promoter of c-myc (luciferase)", "setting": "[1]", "result": "more effectively than GSE24.2"}]}
